# Results: patent publication US20130072505A1, “6,9-Disubstituted Purine Derivatives and Their Use for Treating Skin” (priority 2006, published 2013)
# Tests used:
# human osteosarcoma (HOS) = assay: in vitro cytotoxic activity, Calcein AM microtiter assay; type: cell-based; settings: 72 hours, highest concentration 166.7 μM
# Protocol: (§1) In vitro cytotoxic activity of several of the 6,9-disubstituted purine derivatives of this invention was determined using a microtiter assay with Calcein AM and a panel of cell lines of different histogenetic and species origin; kinetin was also examined as a control. Because only metabolically active cells cleave Calcein AM (tetraacetoxymethyl ester of calcein), the intracellular concentration of calcein corresponds to the number of vital cells in the culture.
# (§2) The following cell lines were used: human osteosarcoma (HOS); breast carcinoma MCF-7; human myeloid leukemia K-562; and mouse fibroblasts NIH3T3. The cells were maintained in Nunc/Corning 80 cm^2 plastic tissue culture flasks and cultured in cell culture medium (DMEM with 5 g/l glucose, 2 mM glutamine, 100 U/ml penicillin, 100 μg/ml streptomycin, 10% fetal calf serum, and sodium bicarbonate).
# (§3) The cell suspensions were prepared and diluted according to the particular cell type and the expected target cell density (2.500-30.000 cells per well based on cell growth characteristics) were added by pipette (80 μl) into 96/well microtiter plates. Inoculates were allowed a pre-incubation period of 24 hours at 37° C. and 5% CO2 for stabilization. Four-fold dilutions of the intended test concentration were added at time zero in 20 μl aliquots to the microtiter plate wells. The test compounds were generally evaluated at six 4-fold dilutions. The highest well concentration used in the present study was 166.7 μM. All samples were examined in triplicates. Incubations of cells with the tested compounds was for 72 hours at 37° C., in 5% CO2 atmosphere and 100% humidity. At the end of the incubation period, Calcein AM was added to a final concentration of 1 μg/ml incubated for 1 hour. Fluorescence intensity (FI) was measured with a Labsystem FIA Reader Fluoroscan Ascent (UK). The cell survival (GI50) was calculated using the following equation: GI50=([…])/(mean FIcontrol well−mean FIblank)×100%. The GI50 value, the drug concentration lethal to 50% of the cells, was calculated from the obtained dose response curves.
# breast carcinoma MCF-7 = assay: as above; type: cell-based; settings: Homo sapiens, MCF7; 72 hours; highest concentration 166.7 μM
# Protocol: as §1, §2, §3
# mouse fibroblasts NIH3T3 = assay: as above; type: cell-based; settings: NIH3T3, 72 hours, highest concentration 166.7 μM, read-out: GI50 NIH-3T3
# Protocol: as §1, §2, §3
# [1] = system: Human diploid fibroblasts (HCA cells); assay: inhibition of senescence, β-galactosidase staining; type: cell-based; settings: test compounds about 50 μM at each passage; for Senescent Cells (%) HCA25: passage 25; for Senescent Cells (%) HCA80: passage 80
# Protocol: Inhibition of senescence by several of the 6,9-disubstituted purine derivatives of this invention was determined; kinetin was also evaluated as a control. […] The medium used for the cell cultivation was removed, the cells were washed twice in PBS, and fixed in 2-3 ml of fixing solution comprised of a 2% formaldehyde and 0.2% glutaraldehyde in PBS. The cells were incubated at room temperature for 5 minutes, and then washed twice with PBS. The cells were subsequently incubated at 37° C. (without CO2) for 1 to 16 hours in 2-3 ml of the solution comprising potassium ferricyanide (5 mM), potassium ferrocyanide (5 mM), MgCl2 (2 mM), X-gal (5-bromo-4-chloro-3-indolyl-β-D-galactopyranoside) (1 mg/ml), in citric/phosphate buffer (pH 6.0). The test compounds (about 50 μM) were added to the medium at each passage. […] In this experiment, only senescent cells were stained blue due to the action of β-galactosidase on the substrate.
# [2] = system: Rat C6 glioma (ATCC No. CCL107); assay: anti-inflammatory activity: isoproterenol-induced intracellular cAMP synthesis; type: cell-based; settings: cAMP after 30 min with (−)-isoproterenol; for IC50: Rattus norvegicus, C6 glioma, 0.5 h, read-out: Anti-inflammatory Activity I50
# Protocol: Anti-inflammatory activity of several of the 6,9-disubstituted purine derivatives of this invention was determined; kinetin was also evaluated as a control. Rat C6 glioma (ATCC No. CCL107) was cultivated in monolayer in serum-free chemically defined medium containing Ham's F10/minimal essential medium (1:1 v/v), 2 mM L-glutamine, 1% (v/v) minimal essential medium vitamins (100×), 1% (v/v) minimal essential medium nonessential amino acids (100×), 100 U/ml penicillin, […], and 30 nM sodium selenite. Incubation was performed at 37° C. in a humidified atmosphere. The assays were performed in the logaritmic growth phase at a density of 2.5×10^5 cells/cm^2. Intracellular cAMP synthesis was induced by addition of 5 mM (−)-isoproterenol; various amounts of test compounds were added at the same time as the (−)-isoproterenol. After 30 min incubation at 37° C., the medium was removed and the cellular amount of cAMP was determined using the cAMP-enzyme immunoassay kit from Amersham. The I50 value was determined from a dose-response curve in duplicate.
# [3] = system: Human forskin fibroblasts (cell line BJ); assay: in vitro cytotoxic activity, MTT assay; type: cell-based; settings: 72 hours, BJ fibroblasts at middle passage
# Protocol: In vitro cytotoxic activity of several of the 6,9-disubstituted purine derivatives of this invention against human diploid fibroblasts was determined by standard MTT assay optimized for 96-well plates. The assay is based on spectrofotometric measurement of the product of metabolic conversion of MTT by mitochondria of living cells.
# Human forskin fibroblasts (cell line BJ) at middle passage were maintained in 75 cm^2 plastic tissue culture flasks and cultured in cell culture medium (DMEM with 5 g/l glucose, 2 mM glutamine, 100 U/ml penicillin, 100 μg/ml streptomycin, 10% fetal calf serum, and sodium bicarbonate).
# About 5,000 cells were seeded per well of the 96-well plate. After 24 hours the cell culture medium was replaced with the cell culture medium containing a test compound. The test compounds were evaluated at six 2-fold dilutions. The highest concentration used in the present study was usually 200 μM. In the case of compounds with limited solubility in the culture medium the highest concentration was adjusted. Every test compound was examined in five replicates. Cells with the test compounds were incubated for 72 hours at 37° C. in 5% CO2 atmosphere and 100% humidity. At the end of the incubation period, the culture medium was replaced with the cell culture medium containing MTT (0.5 mg/ml) and cells were incubated for another 3 hours. The formazan formed was solubilized by DMSO and absorbance at 570 nm was measured. Ability of the tested compounds to inhibit MTT reducing activity of the cells was calculated as IC=(Acompound exposed well−mean Ablank)/(mean Acontrol well−meanAblank)×100%. IC10, the drug concentration causing 10% decrease in MTT reducing activity, was calculated from the obtained dose response curves.
SMILES,melting point,Senescent Cells (%) HCA50 [1],Senescent Cells (%) HCA25 [1],Senescent Cells (%) HCA80 [1],IC10 (concentration causing 10% decrease in MTT reducing activity) [3],further results
COc1ccc(CNc2ncnc3c2ncn3C2CCCO2)cc1 (stereo not shown) [6-(4-methoxybenzylamino)-9-(2-tetrahydrofuranyl)purine],182 to 183 °C,,,,,GI50 (human osteosarcoma (HOS)): > 167 µM; GI50 (breast carcinoma MCF-7): > 167 µM; GI50 (mouse fibroblasts NIH3T3): > 167 µM
"COc1ccc(OC)c(CNc2ncnc3c2ncn3C2CCCO2)c1 (stereo not shown) [Example 13, 6-(2,5-dimethoxybenzylamino)-9-(2-tetrahydrofuranyl)purine]",103 to 104 °C,,,,,
"COc1ccc(CNc2ncnc3c2ncn3C2CCCO2)c(OC)c1OC (stereo not shown) [Example 15, 6-(2,3,4-trimethoxybenzylamino)-9-(2-tetrahydrofuranyl)purine]",140 to 141 °C,,,,,
COc1ccccc1CNc1ncnc2c1ncn2C1CCCCO1 (stereo not shown) [6-(2-methoxybenzylamino)-9-(2-tetrahydropyranyl)purine],106 to 108 °C,6%,4%,22%,,
c1ccc(Nc2ncnc3c2ncn3C2CCCCO2)cc1 (stereo not shown) [6-phenylamino-9-(2-tetrahydropyranyl)purine],,,,,,IC50 [2]: 45 µM; Anti-inflammatory Activity Effect [2]: Inhibition
c1coc(CNc2ncnc3c2ncn3C2CCCO2)c1 (stereo not shown) [6-furfurylamino-9-(2-tetrahydrofuranyl)purine],128 to 129 °C,4%,3%,12%,>200 µM,
COc1cccc(CNc2ncnc3c2ncn3C2CCCCO2)c1 (stereo not shown) [6-(3-methoxybenzylamino)-9-(2-tetrahydropyranyl)purine],134 to 135 °C,5%,5%,24%,>100 µM,IC50 [2]: 7 µM; Anti-inflammatory Activity Effect [2]: Inhibition
"COc1ccc(CNc2ncnc3c2ncn3C2CCCCO2)cc1OC (stereo not shown) [6-(3,4-dimethoxybenzylamino)-9-(2-tetrahydropyranyl)purine]",,,,,>200 µM,
"COc1cc(CNc2ncnc3c2ncn3C2CCCCO2)cc(OC)c1OC (stereo not shown) [6-(3,4,5-trimethoxybenzylamino)-9-(2-tetrahydropyranyl)purine]",,,,,,IC10 (concentration causing 10% decrease in MTT reducing activity) ([3]; highest tested concentration 100 µmol/l): >100 µM; IC10 (concentration causing 10% decrease in MTT reducing activity) ([3]; highest tested concentration 200 µmol/l): >200 µM
"COc1cc(OC)c(CNc2ncnc3c2ncn3C2CCCCO2)c(OC)c1 (stereo not shown) [6-(2,4,6-trimethoxybenzylamino)-9-(2-tetrahydropyranyl)purine]",,,,,>50 µM,
"COc1ccc(Nc2ncnc3c2ncn3C2CCCCO2)c(OC)c1 (stereo not shown) [6-(2,4-dimethoxyphenylamino)-9-(2-tetrahydropyranyl)purine]",,4%,4%,29%,,
"COc1cc(OC)c(OC)cc1Nc1ncnc2c1ncn2C1CCCCO1 (stereo not shown) [6-(2,4,5-trimethoxyphenylamino)-9-(2-tetrahydropyranyl)purine]",,4%,5%,25%,,
"COc1cc(OC)c(OC)cc1CNc1ncnc2c1ncn2C1CCCCO1 (stereo not shown) [6-(2,4,5-trimethoxybenzylamino)-9-(2-tetrahydropyranyl)purine]",,,,,>200 µM,
"COc1ccc(CNc2ncnc3c2ncn3C2CCCCO2)c(OC)c1OC (stereo not shown) [6-(2,3,4-trimethoxybenzylamino)-9-(2-tetrahydropyranyl)purine]",142 to 143 °C,5%,4%,31%,,
"COc1ccc(OC)c(CNc2ncnc3c2ncn3C2CCCCO2)c1 (stereo not shown) [Example 12, 6-(2,5-dimethoxybenzylamino)-9-(2-tetrahydropyranyl)purine]",150 to 152 °C,,,,,
"COc1cccc(CNc2ncnc3c2ncn3C2CCCCO2)c1OC (stereo not shown) [6-(2,3-dimethoxybenzylamino)-9-(2-tetrahydropyranyl)purine]",,,,,,GI50 (human osteosarcoma (HOS)): > 167 µM; GI50 (breast carcinoma MCF-7): > 167 µM; GI50 (mouse fibroblasts NIH3T3): > 167 µM
"COc1ccc(Nc2ncnc3c2ncn3C2CCCCO2)cc1 (stereo not shown) [Example 10, 6-(4-methoxyphenylamino)-9-(2-tetrahydropyranyl)purine]",150 to 151 °C,,,,,
"COc1ccc(Nc2ncnc3c2ncn3C2CCCCO2)cc1OC (stereo not shown) [6-(3,4-dimethoxyphenylamino)-9-(2-tetrahydropyranyl)purine]",,7%,5%,28%,,
"COc1ccc(CNc2ncnc3c2ncn3C2CCCCO2)c(OC)c1 (stereo not shown) [6-(2,4-dimethoxybenzylamino)-9-(2-tetrahydropyranyl)purine]",,6%,4%,25%,>25 µM,
"COc1ccccc1CNc1ncnc2c1ncn2C1CCCO1 (stereo not shown) [Example 8, 6-(2-methoxybenzylamino)-9-(2-tetrahydrofuranyl)purine]",97 to 99 °C,,,,,
